Converted amounts (≈) assume the structure as drawn.
Columns and labels:
TNF-α = assay: Inhibition of TNF-α secretion from human PBMC stimulated with LPS; format: cell-based; conditions: 1 μg/ml LPS, 24 h; for IC50: read-out: IC50 TNF-α release
Method: (§1) 5.2 Inhibition of IL-β, IL-6, or TNF-α Secretion from Human Peripheral Blood […] (PBMC) Stimulated with LPS PBMC (5×10^5 cells) suspended in RPMI 1640 culture medium supplemented with 1% penicillin and 1% streptomycin are pre-incubated for 30 min. at 37° C. with the test compound, reference compound, or culture medium (control). Thereafter, 1 μg/ml LPS is added to induce the cytokine secretion and the mixture is incubated for 24 h at 37° C. For basal control measurements, LPS is omitted from the incubation medium. Following incubation, the samples are centrifuged at 250×g for 5 min. at 4° C. and the supernatants are collected. The amount of secreted IL-1β, 1L-6, or TNF-α present in the supernatant is quantified using an EIA detection kit (R&D systems). The photometric measurements are made with a microplate reader (Ultra, Tecan). The results are expressed as a percent inhibition of the control secretion induced by LPS. The standard inhibitory reference compounds for IL-1β, IL-6 or TNF-α are cycloheximide and dexamethasone, respectively, which are tested in each experiment at several concentrations to obtain an inhibition curve from which their IC50 values are calculated (Schindler, R., et al., (1990). “Correlations and interactions in the production of interleukin-6 (IL-6), IL-1, and tumor necrosis factor (TNF) in human blood mononuclear cells: IL-6 suppresses IL-1 and TNF”, Blood, 75:40. These procedures were used to determine the inhibition (and selectivity) of cytokine release by representative compounds […] shown in Table 2. Thus, the invention provides antibiotics that are generically called borinic acid complexes, most preferably derived from disubstituted borinic acids.

IL-1β = assay: Inhibition of IL-1β secretion from human PBMC stimulated with LPS; format: cell-based; conditions: 1 μg/ml LPS, 24 h; for IC50: read-out: IC50 IL-1β release
Method: as §1

IL-6 = assay: Inhibition of IL-6 secretion from human PBMC stimulated with LPS; format: cell-based; conditions: 1 μg/ml LPS, 24 h; for IC50: read-out: IC50 IL-6 release
Method: as §1

IL-8 = assay: Inhibition of IL-8 pro-inflammatory cytokine release; format: cell-based
From the text: The selective inhibition of the release of pro-inflammatory cytokines is shown in Table 2 with representative compounds 10, 11, and 30-35.

S. aureus ATCC 29213 = assay: MIC determination (NCCLS broth microdilution), S. aureus; format: cell-based; conditions: lowest concentration with >=80% inhibition, 24 h at 34° C.
Method: (§2) The compounds of this invention are evaluated for their antibacterial activity as per the guidelines and procedures prescribed by the National Committee for Clinical Laboratory Standards (NCCLS) (cf., NCCLS Document M7-A3, 1993-Antimicrobial Susceptibility Testing). 5.1.1 Protocol for Determining Minimum Inhibitory Concentration (MIC) A useful protocol for MIC determination is as follows: • 1. Approximately 2.5 mg of the compounds to be tested was weighed into cryovials. • 2. 5 mg/ml stock solutions were made by adding DMSO to the samples accordingly. • 3. 256 μg/ml working solutions were made by using the 5 mg/ml stock solutions and adding sterile distilled water accordingly. • 4. A Beckman 2000 Automated Workstation was programmed to load 96-well plates with broth and compounds as follows: • 100 μl of the appropriate broth was added to columns 1-11. • 200 μl of the appropriate broth was added to column 12. • 100 μl of compounds at the 256 μg/ml working solution were added to column 1 (one compound per row). • Two-fold serial dilutions were done from columns 1-10. • Column 11 served as the growth control. • 5. The ten-organism panel was plated from stock vials stored at −80° C. and incubated for 24 hours at 34° C. The organisms were then sub-cultured and incubated for 24 hours at 34° C. • The inoculums were first prepared in sterile distilled water with a target of 0.09-0.11 absorbance at 620 nm wavelength. • A 1/100 dilution was made into the appropriate broth. • 100 μl of broth with organism was added to columns 1-11. • Column 12 served as the blank control. • 6. The completed 96 well plates were incubated for 24 hours at 34° C. The 96-well plates were then read using a Beckman Automated Plate Reader at 650 nm wavelength. The MIC was determined through calculations involving the growth control (column 11) and blank control (column 12). 5.1.2 MIC Calculation The absorbance readings from the Biomek Automated Plate Reader are used to determine the percent inhibition for each test well. The formula used is as follows: [formula] • ABSTest: Absorbance of the test well. • ABSblank: Absorbance of the blank well in the same row as the test well (column 12). • ABSgrowth: Mean absorbance of the growth control wells (column 11). […] These procedures were used to obtain the representative microbiological data for the compounds 10 to 19 shown in Table 1 as MIC (Minimum Inhibitory Concentration) with the values expressed as micrograms per milliliter (mcg/ml).

P. acnes ATCC 6919 = assay: MIC determination (NCCLS broth microdilution), P. acnes; format: cell-based, Propionibacterium acnes; conditions: lowest concentration with >=80% inhibition, 24 h at 34° C.
Method: as §2

[1] = system: S. epidermidis ATCC 12228; assay: MIC determination (NCCLS broth microdilution), S. epidermidis; format: cell-based; conditions: lowest concentration with >=80% inhibition, 24 h at 34° C.
Method: as §2

Structure (SMILES) | MIC S. aureus ATCC 29213 (S. aureus ATCC 29213) [µg/mL] | MIC P. acnes ATCC 6919 (P. acnes ATCC 6919) [µg/mL] | MIC S. epidermidis ATCC 12228 [1] [µg/mL] | Inhibition (%) at 25 μM TNF-α release (TNF-α) | Inhibition (%) at 25 μM IL-1β release (IL-1β) | also measured
Cc1ccc(B(OC(=O)c2ncccc2O)c2ccc(O)cc2)cc1Cl [Compound 33, (3-chloro-4-methylphenyl)(4-hydroxyphenyl)borinic acid 3-hydroxypicolinate ester] |  |  |  | 48% | 60% | 
Cc1ccc(B(OC(=O)c2ncccc2O)c2ccc(C)c(Cl)c2)cc1Cl [Compound 10, Bis(3-chloro-4-methylphenyl)borinic acid 3-hydroxypicolinate ester] | 2 (≈ 5 µM) | 0.3 (≈ 0.75 µM) | 1 (≈ 2.5 µM) | (100%) | (99%) | IC50 (IL-6): 3.6 µM; Inhibition (%) at 25 μM IL-6 release (IL-6): (80%); Inhibition (%) at 25 μM IL-8 release (IL-8): (122%); IC50 (TNF-α): 8.6 µM; IC50 (IL-1β): 10.8 µM
CCOC(=O)c1cccnc1C(=O)OB(c1ccc(C)c(Cl)c1)c1ccc(C)c(Cl)c1 [Compound 30, Bis(3-chloro-4-methylphenyl)borinic Acid 3-(Ethyloxycarbonyl)picolinate Ester] |  |  |  | 101% | 76% | 
CC[C@H]1OC(=O)[C@H](C)[C@@H](O[C@H]2C[C@@](C)(OC)[C@@H](O)[C@H](C)O2)[C@H](C)[C@@H](O[C@@H]2O[C@H](C)C[C@H](N(C)C)[C@H]2O)[C@](C)(O)C[C@@H](C)C(=O)[C@H](C)[C@@H](O)[C@]1(C)O [erythromycin, reference compound] |  |  |  |  |  | MIC (S. aureus ATCC 29213; Staphylococcus aureus, ATCC29213): 0.5 µg/mL (≈ 0.681 µM); MIC (P. acnes ATCC 6919; Cutibacterium acnes, ATCC6919): 1 to 2 µg/mL (≈ 1.36 to 2.73 µM); MIC ([1]; Staphylococcus epidermidis, ATCC12228): 0.5 µg/mL (≈ 0.681 µM)
Cc1ccc(B(OC(=O)c2ccc(C(=O)O)cn2)c2ccc(C)c(Cl)c2)cc1Cl [Compound 31, Bis(3-chloro-4-methylphenyl)borinic acid 5-Carboxypicolinate ester] |  |  |  | 101% | 80% | 
O=C(OB(c1ccc(Cl)cc1F)c1c(Cl)ccc(Br)c1F)c1ncccc1O [Compound 34, (3-Bromo-6-chloro-2-fluorophenyl)(4-chloro-2-fluorophenyl)borinic acid 3-hydroxypicolinate ester] |  |  |  | 101% | 100% | Inhibition (%) at 25 μM IL-6 release (IL-6): 108%
Cc1ccc(B(OC(=O)c2ncccc2OCCN2CCOCC2)c2ccc(C)c(Cl)c2)cc1Cl [Compound 32, Bis(3-chloro-4-methylphenyl)borinic acid 3-[(2-Morpholinoethyl)oxy]picolinate ester] |  |  |  | 101% | 34% | 
Cc1cc(Cl)ccc1B(OC(=O)c1ncccc1O)c1ccc(Cl)cc1C [Compound 11, Bis(2-methyl-4-chlorophenyl)borinic acid 3-Hydroxypicolinate ester] | 1 (≈ 2.5 µM) | 0.3 (≈ 0.75 µM) | 0.25 (≈ 0.625 µM) | (101%) | (103%) | IC50 (IL-6): 2.8 µM; Inhibition (%) at 25 μM IL-6 release (IL-6): (102%); Inhibition (%) at 25 μM IL-8 release (IL-8): (122%); IC50 (TNF-α): 14.9 µM; IC50 (IL-1β): 15 µM
Cc1ccc(B(CCc2ccccc2)OC(=O)c2ncccc2O)cc1Cl [Compound 12, (3-chloro-4-methylphenyl)(phenethyl)borinic acid 3-Hydroxypicolinate ester] | 0.5 (≈ 1.32 µM) | 3 (≈ 7.9 µM) | 1 (≈ 2.63 µM) |  |  | 

Further lines, with some results ahead:

MIC S. aureus ATCC 29213 (S. aureus ATCC 29213) [µg/mL] | MIC P. acnes ATCC 6919 (P. acnes ATCC 6919) [µg/mL] | MIC S. epidermidis ATCC 12228 [1] [µg/mL] | Structure (SMILES) | Inhibition (%) at 25 μM TNF-α release (TNF-α) | Inhibition (%) at 25 μM IL-1β release (IL-1β) | also measured
0.125 (≈ 0.292 µM) | 3 (≈ 7.01 µM) | 4 (≈ 9.34 µM) | Cc1ccc(B(OC(=O)c2ncccc2C(=O)O)c2ccc(C)cc2Cl)c(Cl)c1 [Compound 14, Bis(2-Chloro-4-methylphenyl)borinic acid 3-carboxypicolinate ester] |  |  | 
0.5 (≈ 1.17 µM) | 10 (≈ 23.3 µM) | 8 (≈ 18.6 µM) | CC(=O)Nc1ccc(O)c(C(=O)OB(c2cccc(Cl)c2)c2cccc(Cl)c2)n1 [Compound 16, Bis(3-chlorophenyl)borinic acid 6-Acetylamino-3-hydroxypicolinate ester] |  |  | 
4 (≈ 9.95 µM) | 3 (≈ 7.46 µM) | 4 (≈ 9.95 µM) | COc1ccc(Cl)cc1B(OC(=O)c1ncccc1O)c1cccc(Cl)c1 [Compound 15, (2-Methoxy-5-chlorophenyl)(3-chlorophenyl)borinic acid 3-Hydroxypicolinate ester] |  |  | 
2 (≈ 4.11 µM) | 3 (≈ 6.16 µM) | 1 (≈ 2.05 µM) | O=C(OB(c1ccc(Cl)cc1F)c1c(Cl)ccc(Br)c1F)c1ncccc1O [Compound 13, (3-Bromo-6-chloro-2-fluorophenyl)(2-fluoro-4-chlorophenyl)borinic acid 3-Hydroxypicolinate ester] |  |  | 
